Results taken from ChEMBL document CHEMBL3769303, “Discovery of membrane active benzimidazole quinolones-based topoisomerase inhibitors as potential DNA-binding antimicrobial agents” (Eur J Med Chem, 2016).
Converted amounts (≈) assume the structure as drawn.

Experiments:
Type in all cases: functional
Micrococcus luteus = assay: Antibacterial activity against Micrococcus luteus ATCC 4698 by micro broth dilution method; settings: NCTC 2665
Staphylococcus aureus [1] = assay: Antibacterial activity against methicillin-resistant Staphylococcus aureus N315 by micro broth dilution method
Bacillus spizizenii = assay: Antibacterial activity against Bacillus subtilis ATCC 6633 by micro broth dilution method
Staphylococcus aureus [2] = assay: Antibacterial activity against Staphylococcus aureus ATCC 25923 by micro broth dilution method
Shigella dysenteriae = assay: Antibacterial activity against Shigella dysenteriae by micro broth dilution method
Escherichia coli [3] = assay: Antibacterial activity against Escherichia coli JM109 by micro broth dilution method
Pseudomonas aeruginosa = assay: Antibacterial activity against Pseudomonas aeruginosa ATCC 27853 by micro broth dilution method
Escherichia coli [4] = assay: Antibacterial activity against Escherichia coli DH52 by micro broth dilution method
[5] = Antibacterial activity against Bacillus proteus ATCC 13315 by micro broth dilution method
Salmonella enterica = assay: Antibacterial activity against Salmonella enterica ATCC 14028 by micro broth dilution method
Aspergillus flavus = assay: Antifungal activity against Aspergillus flavus ATCC 204304 after 24 hrs by micro broth dilution method; settings: ATCC 204304, 24 h
Candida albicans = assay: Antifungal activity against Candida albicans ATCC 10231 after 24 hrs by micro broth dilution method; settings: ATCC 10231, 24 h
[6] = Antifungal activity against Candida mycoderma ATCC 9888 after 24 hrs by micro broth dilution method; settings: Candida vini
Saccharomyces cerevisiae = assay: Antifungal activity against Saccharomyces cerevisiae ATCC 9763 after 24 hrs by micro broth dilution method; settings: ATCC 9763, 24 h
Cyberlindnera jadinii = assay: Antifungal activity against Candida utilis ATCC 9950 after 24 hrs by micro broth dilution method; settings: Williopsis jadinii, ATCC 9950, 24 h

Structure (SMILES)	MIC (Micrococcus luteus) [µg/mL]	MIC (Staphylococcus aureus [1]) [µg/mL]	MIC (Bacillus spizizenii) [µg/mL]	MIC (Staphylococcus aureus [2]) [µg/mL]	MIC (Shigella dysenteriae) [µg/mL]	MIC (Escherichia coli [3]) [µg/mL]	MIC (Pseudomonas aeruginosa) [µg/mL]	MIC (Escherichia coli [4]) [µg/mL]	MIC [5] [µg/mL]	MIC (Salmonella enterica) [µg/mL]	MIC80 (Aspergillus flavus) [µg/mL]	MIC80 (Candida albicans) [µg/mL]	MIC80 [6] [µg/mL]	MIC80 (Saccharomyces cerevisiae) [µg/mL]	MIC80 (Cyberlindnera jadinii) [µg/mL]
NC1CCN(c2c(F)cc3c(=O)c(C(=O)O)cn(C4CC4)c3c2Cl)C1 (stereo not drawn) [CLINAFLOXACIN]	0.5 (≈ 1.37 µM)	1 (≈ 2.73 µM)	0.5 (≈ 1.37 µM)	0.5 (≈ 1.37 µM)	0.5 (≈ 1.37 µM)	0.5 (≈ 1.37 µM)	0.5 (≈ 1.37 µM)	0.5 (≈ 1.37 µM)	0.5 (≈ 1.37 µM)	0.25 (≈ 0.683 µM)					
O=C(O)c1cn(C2CC2)c2cc(N3CCN(Cc4nc5ccccc5n4Cc4ccc([N+](=O)[O-])cc4)CC3)c(F)cc2c1=O	8 (≈ 13.4 µM)	2 (≈ 3.35 µM)	4 (≈ 6.7 µM)	4 (≈ 6.7 µM)	8 (≈ 13.4 µM)	8 (≈ 13.4 µM)	4 (≈ 6.7 µM)	16 (≈ 26.8 µM)	8 (≈ 13.4 µM)	16 (≈ 26.8 µM)	1 (≈ 1.68 µM)	2 (≈ 3.35 µM)	4 (≈ 6.7 µM)	1 (≈ 1.68 µM)	2 (≈ 3.35 µM)
CCn1cc(C(=O)O)c(=O)c2cc(F)c(N3CCN(Cc4nc5ccccc5[nH]4)CC3)cc21	1 (≈ 2.22 µM)	1 (≈ 2.22 µM)	1 (≈ 2.22 µM)	2 (≈ 4.45 µM)	2 (≈ 4.45 µM)	4 (≈ 8.9 µM)	1 (≈ 2.22 µM)	0.5 (≈ 1.11 µM)	0.5 (≈ 1.11 µM)	0.5 (≈ 1.11 µM)	0.5 (≈ 1.11 µM)	0.5 (≈ 1.11 µM)	1 (≈ 2.22 µM)	0.5 (≈ 1.11 µM)	0.5 (≈ 1.11 µM)
O=C(O)c1cn(C2CC2)c2cc(N3CCN(Cc4nc5ccccc5n4Cc4cccc(Cl)c4)CC3)c(F)cc2c1=O	0.125 (≈ 0.213 µM)	0.5 (≈ 0.853 µM)	4 (≈ 6.83 µM)	8 (≈ 13.7 µM)	4 (≈ 6.83 µM)	4 (≈ 6.83 µM)	0.125 (≈ 0.213 µM)	0.5 (≈ 0.853 µM)	0.5 (≈ 0.853 µM)	0.25 (≈ 0.427 µM)	0.5 (≈ 0.853 µM)	0.125 (≈ 0.213 µM)	0.5 (≈ 0.853 µM)	0.5 (≈ 0.853 µM)	0.25 (≈ 0.427 µM)
CCCCCCCCCCCCn1c(CN2CCN(c3cc4c(cc3F)c(=O)c(C(=O)O)cn4C3CC3)CC2)nc2ccccc21	4 (≈ 6.35 µM)	64 (≈ 102 µM)	4 (≈ 6.35 µM)	32 (≈ 50.8 µM)	2 (≈ 3.18 µM)	16 (≈ 25.4 µM)	4 (≈ 6.35 µM)	8 (≈ 12.7 µM)	4 (≈ 6.35 µM)	16 (≈ 25.4 µM)	4 (≈ 6.35 µM)	64 (≈ 102 µM)	4 (≈ 6.35 µM)	8 (≈ 12.7 µM)	32 (≈ 50.8 µM)
O=C(O)c1cn(C2CC2)c2cc(N3CCNCC3)c(F)cc2c1=O [CIPROFLOXACIN]	2 (≈ 6.04 µM)	2 (≈ 6.04 µM)	2 (≈ 6.04 µM)	0.5 (≈ 1.51 µM)	2 (≈ 6.04 µM)		1 (≈ 3.02 µM)		2 (≈ 6.04 µM)	1 (≈ 3.02 µM)					
O=C(O)c1cn(C2CC2)c2cc(N3CCN(Cc4nc5ccc(Cl)cc5[nH]4)CC3)c(F)cc2c1=O	0.25 (≈ 0.504 µM)	0.5 (≈ 1.01 µM)	0.5 (≈ 1.01 µM)	0.5 (≈ 1.01 µM)	0.5 (≈ 1.01 µM)	0.5 (≈ 1.01 µM)	0.5 (≈ 1.01 µM)	0.5 (≈ 1.01 µM)	0.5 (≈ 1.01 µM)	0.5 (≈ 1.01 µM)	0.5 (≈ 1.01 µM)	0.5 (≈ 1.01 µM)	0.5 (≈ 1.01 µM)	0.25 (≈ 0.504 µM)	0.5 (≈ 1.01 µM)
CCn1cc(C(=O)O)c(=O)c2cc(F)c(N3CCN(Cc4nc5ccccc5n4Cc4cccc(Cl)c4)CC3)cc21	2 (≈ 3.48 µM)	2 (≈ 3.48 µM)	16 (≈ 27.9 µM)	64 (≈ 111 µM)	64 (≈ 111 µM)	64 (≈ 111 µM)	2 (≈ 3.48 µM)	8 (≈ 13.9 µM)	32 (≈ 55.7 µM)	4 (≈ 6.97 µM)	1 (≈ 1.74 µM)	8 (≈ 13.9 µM)	2 (≈ 3.48 µM)	8 (≈ 13.9 µM)	4 (≈ 6.97 µM)
CCCCCCCCn1c(CN2CCN(c3cc4c(cc3F)c(=O)c(C(=O)O)cn4C3CC3)CC2)nc2ccccc21	1 (≈ 1.74 µM)	1 (≈ 1.74 µM)	32 (≈ 55.8 µM)	16 (≈ 27.9 µM)	4 (≈ 6.97 µM)	2 (≈ 3.49 µM)	1 (≈ 1.74 µM)	0.5 (≈ 0.872 µM)	0.5 (≈ 0.872 µM)	4 (≈ 6.97 µM)	1 (≈ 1.74 µM)	1 (≈ 1.74 µM)	1 (≈ 1.74 µM)	16 (≈ 27.9 µM)	2 (≈ 3.49 µM)
O=C(O)c1cn(C2CC2)c2cc(N3CCN(Cc4nc5ccccc5n4Cc4ccc(F)cc4)CC3)c(F)cc2c1=O	16 (≈ 28.1 µM)	4 (≈ 7.02 µM)	8 (≈ 14 µM)	16 (≈ 28.1 µM)	16 (≈ 28.1 µM)	16 (≈ 28.1 µM)	8 (≈ 14 µM)	32 (≈ 56.2 µM)	16 (≈ 28.1 µM)	16 (≈ 28.1 µM)	8 (≈ 14 µM)	8 (≈ 14 µM)	16 (≈ 28.1 µM)	16 (≈ 28.1 µM)	8 (≈ 14 µM)
